The target of assay [1] is LMP7 (purified human immuno proteasome) (Homo sapiens, UniProt P20618+P28062). The experiment in a line: Determination of LMP7 activity (fluorescence intensity assay, Suc-LLVY-AMC). It counts as biochemical. As to conditions: for Selectivity LMP7 vs Beta5: LMP7 versus Beta5, incubation for 20 minutes; for IC50: purified human immuno proteasome 0.25 nM, incubation for 20 minutes at 25° C., Suc-LLVY-AMC 40 μM. The method, then: Determination of LMP7 Activity:
Measurement of LMP7 inhibition is performed in 384 well format based on fluorescence intensity assay.
(§1) Purified human immuno proteasome (0.25 nM) and serial diluted compounds in DMSO (range of concentrations from 30 μM to […]) or controls are incubated for 20 minutes or 120 minutes (long incubation) at 25° C. in assay buffer containing 50 mM Tris pH 7.4, 0.03% SDS, 1 mM EDTA and 1% DMSO. The reaction is initiated by the addition of the fluorogenic peptide substrate, Suc-LLVY-AMC (Bachem 1-1395), at a concentration of 40 μM. After 60 minutes of incubation at 37° C., fluorescence intensity is measured at λex=350 nm and λem=450 nm with a fluorescence reader (Perkin Elmer Envision reader or equivalent).
(§2) Unless indicated otherwise the results are obtained after incubation for 20 minutes.

The target in assay [2] is Beta5 (purified human constitutive proteasome) (Homo sapiens, UniProt P20618+P28074). The experiment in a line: Determination of Beta5 activity (fluorescence intensity assay, Suc-LLVY-AMC). It is filed as biochemical. The following applies: purified human constitutive proteasome 1.25 nM, incubation for 20 minutes at 25° C., Suc-LLVY-AMC 40 μM. The method, then:
Determination of Beta5 Activity:
Measurement of Beta5 inhibition is performed in 384 well format based on fluorescence intensity assay.
as §1, with “constitutive” for “immuno”, “(1.25” for “(0.25”
as §2

Assay [3] deals with LMP7 subunit of the immunoproteasome (Homo sapiens, UniProt P20618+P28062). The following applies: Singh et al, Br. J. Hematology 152(2): 155-163; cited from earlier work.

Consider `CSCC(=O)N[C@H](Cc1coc2c(C)cccc12)B(O)O` [Compound 1, [(1S)-2-(7-methylbenzo-furan-3-yl)-1-[(2-methyl-sulfanylacetyl)amino]-ethyl]boronic acid], for which, in assay [1], the “Selectivity LMP7 vs Beta5” value is “++ (100 ≤ Selectivity < 300)”. In addition, the IC50 lay within 500 to 5000 nM in assay [1] and 5000 to 30000 nM in assay [2].
Taken in the same sequence, the figures for `CSCC(=O)N[C@@H](Cc1coc2c(C)cccc12)B(O)O` [Compound 6, [(1R)-2-(7-methylbenzo-furan-3-yl)-1-[(2-methyl-sulfanylacetyl)amino]-ethyl]boronic acid] were “++ (100 ≤ Selectivity < 300)”, at most 50 nM and 50 to 500 nM.
`O=C(N[C@@H](Cc1coc2ccccc12)B(O)O)C1COc2ccccc21` (stereo partly drawn) [Compound 35, [(1R)-2-(benzofuran-3-yl)-1-(2,3-dihydrobenzo-furan-3-carbonylamino)-ethyl]boronic acid]: in assay [1], the “Selectivity LMP7 vs Beta5” value is given as “++++ (Selectivity ≥ 500)” and the IC50 is at most 50 nM. Also, in assay [2], the IC50 lay in the range of 500 to 5000 nM.
For the compound `Cc1cccc2c(C[C@H](NC(=O)[C@H]3CCCO3)B(O)O)coc12` [Compound 29, [(1R)-2-(7-methylbenzo-furan-3-yl)-1-[[(2R)-tetrahydrofuran-2-carbonyl]amino]ethyl]-boronic acid], in assay [1], the “Selectivity LMP7 vs Beta5” value was “++ (100 ≤ Selectivity < 300)” and the IC50 was at most 50 nM. Besides, in assay [2], the half-inhibitory concentration (IC50) lay in the range of 500 to 5000 nM.
With `CSCC(=O)N[C@@H](Cc1coc2c(C)c(Cl)ccc12)B(O)O` [Compound 14, [(1R)-2-(6-chloro-7-methylbenzofuran-3-yl)-1-[(2-methyl-sulfanylacetyl)amino]-ethyl]boronic acid], in assay [1], the “Selectivity LMP7 vs Beta5” value is recorded as “+++ (300 ≤ Selectivity < 500)” and the IC50 is at most 50 nM. In addition, in assay [2], the IC50 was in the range of 500 to 5000 nM.
Regarding `CC1=C(C(=O)N[C@H](C)C(=O)N[C@@H](Cc2c[nH]c3ccccc23)C(=O)N[C@@H](Cc2ccccc2)C(=O)[C@@]2(C)CO2)Cc2ccccc21` [PR-924], in assay [3], the “selective inhibitor of the LMP7 subunit of the immunoproteasome” value was 100 fold.
On to `O=C(N[C@@H](Cc1coc2ccccc12)B(O)O)C1OCCc2ccccc21` (stereo partly drawn) [Compound 38, [(1R)-2-(benzofuran-3-yl)-1-(isochromane-1-carbonylamino)ethyl]-boronic acid], for which, in assay [1], the “Selectivity LMP7 vs Beta5” value is listed as “+++ (300 ≤ Selectivity < 500)” and the IC50 is at most 50 nM. Further, the IC50 in assay [2] was 500 to 5000 nM.
For `O=C(CCO)N[C@@H](Cc1coc2ccccc12)B(O)O` [Compound 24, [(1R)-2-(benzofuran-3-yl)-1-(3-hydroxypro-panoylamino)ethyl]-boronic acid], in that order: “++ (100 ≤ Selectivity < 300)”, at most 50 nM and 500 to 5000 nM.
With `O=C(N[C@@H](C[C@@H]1COc2ccccc21)B(O)O)[C@@H]1CCOC1` [Compound 41, [(1R)-2-[(3S)-2,3-dihydrobenzofuran-3-yl]-1-[[(3R)-tetra-hydrofuran-3-carbonyl]-amino]ethyl]boronic acid], in assay [1], the “Selectivity LMP7 vs Beta5” value is on record as “++++ (Selectivity ≥ 500)” and the IC50 lay in the range of 50 to 500 nM. Besides, in assay [2], the IC50 was in the range of 5000 to 30000 nM.
`CSCC(=O)N[C@@H](C[C@@H]1COc2ccccc21)B(O)O` [Compound 5, [(1R)-2-[(3S)-2,3-dihydrobenzofuran-3-yl]-1-[(2-methylsulfan-ylacetyl)amino]ethyl]-boronic acid]: in assay [1], the “Selectivity LMP7 vs Beta5” value is recorded as “+++ (300 ≤ Selectivity < 500)” and the IC50 was at most 50 nM. Further, the IC50 in assay [2] fell in the range of 500 to 5000 nM.
Taken in the same sequence, the figures for `CSCC(=O)N[C@@H](Cc1ccc(C)cc1C)B(O)O` [Compound 21, [(1R)-2-(2,4-dimethyl-phenyl)-1-[(2-methyl-sulfanylacetyl)amino]-ethyl]boronic acid] were “++ (100 ≤ Selectivity < 300)”, at most 50 nM and 500 to 5000 nM.
As to `Cc1cccc2c(C[C@@H](NC(=O)[C@H]3CCCO3)B(O)O)coc12` [Compound 30], in assay [1], the “Selectivity LMP7 vs Beta5” value is “++ (100 ≤ Selectivity < 300)” and the IC50 was 50 to 500 nM. The same compound yielded a concentration for half-maximal inhibition (IC50) in assay [2] of 5000 to 30000 nM.
Regarding `CSCC(=O)NC(Cc1coc2c(F)cccc12)B(O)O` (stereo not shown) [Compound 9, [2-(7-fluorobenzofuran-3-yl)-1-[(2-methyl-sulfanylacetyl)amino]-ethyl]boronic acid], in assay [1], the “Selectivity LMP7 vs Beta5” value is listed as “++ (100 ≤ Selectivity < 300)” and the IC50 is at most 50 nM. For the same compound, the IC50 in assay [2] was in the range of 500 to 5000 nM.
For `O=C(N[C@@H](Cc1coc2ccccc12)B(O)O)[C@H]1COCCO1` [Compound 40, [(1R)-2-(benzofuran-3-yl)-1-[[(2R)-1,4-dioxane-2-carbonyl]-amino]ethyl]boronic acid], in assay [1], the “Selectivity LMP7 vs Beta5” value is “+ (Selectivity <100)” and the 50% inhibitory concentration (IC50) was at most 50 nM. For the same compound, the half-maximal inhibitory concentration (IC50) in assay [2] lay within 500 to 5000 nM.
Regarding `O=C(N[C@@H](Cc1coc2ccccc12)B(O)O)C1CCCS1` (stereo partly drawn) [Compound 17, [(1R)-2-(benzofuran-3-yl)-1-(tetrahydrothio-phene-2-carbonyl-amino)ethyl]boronic acid], in assay [1], the “Selectivity LMP7 vs Beta5” value is recorded as “++ (100 ≤ Selectivity < 300)” and the IC50 is at most 50 nM. Besides, the IC50 in assay [2] was in the range of 5000 to 30000 nM.

Source of the values: patent US20210317145A1, “Boronic Acid Derivatives” (Merck Patent GmbH, priority 2018, published 2021).
